From publication PMC12527922, “Cocaine chemogenetics blunts drug-seeking by synthetic physiology” (Nature, 2025)

Target: coca-5HT3 (α7(L141G,G175K,Y210F,Y217F)–5HT3) (Homo sapiens, UniProt P36544, G175K/L141G/Y210F/Y217F)
Experiment: Membrane potential assay, coca-5HT3 in HEK293
Settings: for response at coca-5HT3: between 10-100 µM; for Max normalized Response / Response: coca-5HT3; for Max normalized Response: ED Fig 3b
[1] = membrane potential assay dose response

coca-5HT3 (α7(L141G,G175K,Y210F,Y217F)–5HT3), sequence (P36544 23-224 L141G/G175K/Y210F/Y217F): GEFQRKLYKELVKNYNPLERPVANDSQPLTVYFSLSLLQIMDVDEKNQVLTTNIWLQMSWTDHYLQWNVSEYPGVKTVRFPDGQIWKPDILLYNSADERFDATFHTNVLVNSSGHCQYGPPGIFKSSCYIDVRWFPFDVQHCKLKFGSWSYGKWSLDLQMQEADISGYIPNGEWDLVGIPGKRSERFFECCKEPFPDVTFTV
coca-5HT3 (α7(L141G,G175K,Y210F,Y217F)–5HT3), sequence (P23979 242-489, further chain): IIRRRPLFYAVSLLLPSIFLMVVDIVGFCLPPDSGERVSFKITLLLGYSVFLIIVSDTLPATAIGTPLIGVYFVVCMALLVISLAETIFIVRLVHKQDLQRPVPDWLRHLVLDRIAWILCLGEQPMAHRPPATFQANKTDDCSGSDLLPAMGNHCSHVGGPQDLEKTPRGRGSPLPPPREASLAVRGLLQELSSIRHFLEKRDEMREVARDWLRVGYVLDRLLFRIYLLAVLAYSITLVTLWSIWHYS

Compound	Max normalized Response (conc 0.137 uM)	Max normalized Response (conc 3.7 uM)	Max normalized Response (conc 11.1 uM)	Max normalized Response (conc 33.3 uM)	Max normalized Response (conc 100 uM)	Response (conc 0.457247 uM, ED Fig 3a)	Response (conc 1.37174 uM, ED Fig 3a)	Response (conc 12.3457 uM, ED Fig 3a)	Response (conc 37.037 uM, ED Fig 3a)	Response (conc 111.111 uM, ED Fig 3a)	Response (conc 333.333 uM, ED Fig 3a)	Response (conc 1000 uM, ED Fig 3a)	further results
C[N+]1(C)[C@@H]2CC[C@H]1C[C@@H](OC(=O)C(CO)c1ccccc1)C2 (some centres unmarked) [Methylatropine]	0.09159	0.07315	0.365	0.7258	0.936								response at coca-5HT3: substantial response
N[C@@H](CC(=O)O)C(=O)O [Aspartate]						0.065	0.034	0.025	0.074	0.072	0.088	0.232	
CNC[C@H](O)c1ccc(O)c(O)c1 [Epinephrine]						0.136	0.141	0.06	0.029	0.188			
NCC(=O)O [Glycine]						0.223	0.03	0.032	0.042	0.053	0.108	0.232	
CC(C)[N+]1(C)[C@@H]2CC[C@H]1C[C@@H](OC(=O)C(CO)c1ccccc1)C2 (some centres unmarked) [Ipatropium]	0.03351	0.3358	0.05921	0.03979	0.03984								
NCCCC(=O)O [GABA]						0.157	0.099	0.041	0.055	0.023	0.05	0.066	
NCCc1c[nH]cn1 [Histamine]						0.136	0.016	0.035	0.028	0.056	0.051	0.086	
CN1[C@@H]2C[C@@H](OC(=O)[C@H](CO)c3ccccc3)C[C@H]1[C@@H]1O[C@@H]12 [Scopolamine]	0.06195	0.06448	0.04953	0.06371	0.0598								
C[N+]1(C)[C@@H]2C[C@@H](OC(=O)[C@H](CO)c3ccccc3)C[C@H]1[C@@H]1O[C@@H]12 [Methscopolamine]	0.01611	0.08959	0.03432	0.1141	0.3973								
NCCc1ccc(O)c(O)c1 [Dopamine]						0.119	0.062	0.04	0.017	0.052	0.039	0.106	
N[C@@H](CCC(=O)O)C(=O)O [Glutmate]						0.109	0.069	0	0.041	0.031	0.048	0.028	
N[C@H](CO)C(=O)O [D-serine]						0.104	0.061	0.037	0.062	0.111	0.06	0.145	
CC(=O)Oc1ccc2c3c1O[C@H]1[C@@H](OC(C)=O)C=C[C@H]4[C@@H](C2)N(C)CC[C@@]341 [heroin]													Response (conc 0.0137 uM, ED Fig. 2c): 0.058; Response (conc 0.123 uM, ED Fig. 2c): 0.046; Response (conc 0.37 uM, ED Fig. 2c): 0.054; Response (conc 10 uM, ED Fig. 2c): 0.109; Response (conc 30 uM, ED Fig. 2c): 0.105; activation of coca-5HT3 [1]: did not activate
CCCCC/C=C\C/C=C\C/C=C\C/C=C\CCCC(=O)NCCO [Anandamide]						0.053	0.085	0.046	0.011	0.073	0.021	0.149	
CC[N+]1(C)[C@@H]2CC(OC(=O)[C@H](CO)c3ccccc3)C[C@H]1[C@@H]1O[C@@H]12 (some centres unmarked) [Oxitroprium]	0.04923	0.04777	0.1339	0.03611	0.1339								
CN[C@@H](C)Cc1ccccc1 [methamphetamine]													Response (conc 0.0137 uM, ED Fig. 2c): 0.198; Response (conc 0.123 uM, ED Fig. 2c): 0.256; Response (conc 0.37 uM, ED Fig. 2c): 0.136; Response (conc 10 uM, ED Fig. 2c): 0.224; Response (conc 30 uM, ED Fig. 2c): 0.204; activation of coca-5HT3 [1]: did not activate
ecgonine													Response (conc 0.0137174 uM, ED Fig. 2b): 0.052; Response (conc 0.123457 uM, ED Fig. 2b): 0.065; Response (conc 0.37037 uM, ED Fig. 2b): 0.073; Response (conc 1.11111 uM, ED Fig. 2b): 0.07; Response (conc 3.33333 uM, ED Fig. 2b): 0.053; Response (conc 10 uM, ED Fig. 2b): 0.084; Response (conc 30 uM, ED Fig. 2b): 0.084; activation of coca-5HT3 [1]: not activated
Nc1ncnc2c1ncn2[C@@H]1O[C@H](CO)[C@@H](O)[C@H]1O [adenosine]						0.126	0.045	0.079	0.053				
COc1ccc2c3c1O[C@H]1C(=O)CC[C@@]4(O)[C@@H](C2)N(C)CC[C@]314 [oxycodone]													Response (conc 0.0137 uM, ED Fig. 2c): 0.109; Response (conc 0.123 uM, ED Fig. 2c): 0.086; Response (conc 0.37 uM, ED Fig. 2c): 0.066; Response (conc 10 uM, ED Fig. 2c): 0.081; Response (conc 30 uM, ED Fig. 2c): 0.117; activation of coca-5HT3 [1]: did not activate
CCN(CC)CC(=O)Nc1c(C)cccc1C [Lidocaine]	0.1106	0.1119	0.1369	0.1879	0.1519								activation of coca-5HT3 (up to 100 µM): did not activate
CN1[C@@H]2CC[C@H]1C[C@@H](OC(c1ccccc1)c1ccccc1)C2 [Benztropine]	0.05732	0.1399	0.2931	0.5901	1.051								response at coca-5HT3: substantial response
CCN(CC)CCOC(=O)c1ccc(N)cc1 [Procaine]	0.07766	0.1325	0.1562	0.143	0.166								activation of coca-5HT3 (up to 100 µM): did not activate
CN1[C@@H]2CC[C@H]1C[C@@H](OC(=O)[C@H](CO)c1ccccc1)C2 [Hyoscyamine]	0.1005	0.08466	0.09524	0.1217	0.01058								
CN1CC[C@]23c4c5ccc(O)c4O[C@H]2[C@@H](O)C=C[C@H]3[C@H]1C5 [morphine]													Response (conc 0.0137 uM, ED Fig. 2c): 0.063; Response (conc 0.123 uM, ED Fig. 2c): 0.114; Response (conc 0.37 uM, ED Fig. 2c): 0.04; Response (conc 10 uM, ED Fig. 2c): 0.069; Response (conc 30 uM, ED Fig. 2c): 0.121; activation of coca-5HT3 [1]: did not activate
